Experimental data published in patent US8685999B2, “Beta carboline sulphonylurea derivatives as EP4 receptor antagonists” (Merck Sharp & Dohme Corp., priority 2008, dated 2014).

biological target: T1, EP4 (Homo sapiens, UniProt P35408); assay: Prostanoid receptor binding assay (radioligand displacement binding assay); conditions: column marked X when IC50 < 1; read-out: IC50 (nm) X < 1
T1 construct: expressed in transfected cells; membranes prepared by differential centrifugation
Procedure: Prostanoid receptor cDNAs corresponding to full length coding sequences are subcloned into the appropriate sites of mammalian expression vectors and transfected into HEK 293(ebna) cells. HEK 293(ebna) cells expressing the individual cDNAs are grown under selection and individual colonies are isolated after 2-3 weeks of growth using the cloning ring method and subsequently expanded into clonal cell lines.
Transfected HEK 293(ebna) cells are maintained in culture, harvested and membranes are prepared by differential centrifugation, following lysis of the cells in the presence of protease inhibitors, for use in receptor binding assays. Prostanoid receptor binding assays (for DP1, DP2 (CRTH2), EP1, EP2, EP3-III, EP4, FP, IP, and TP) are performed in 10 mM MES/KOH (pH 6.0) (EPs, FP and TP) or 10 mM HEPES/KOH (pH 7.4) (DPs and IP), containing 1 mM EDTA, 2.5-30 mM divalent cation and the appropriate radio-ligand. Synthetic compounds are added in DMSO which is kept constant at 1% (v/v) in all incubations. The reaction is initiated by addition of membrane protein. Non-specific binding is determined in the presence of 10 μM of the corresponding non-radioactive prostanoid. Incubations are conducted for 60-120 min at room temperature or 30° C. and terminated by rapid filtration. Specific binding is calculated by subtracting non specific binding from total binding. The residual specific binding at each ligand concentration is calculated and expressed as a function of ligand concentration in order to construct sigmoidal concentration-response curves. The binding affinity of the compounds is determined by calculating the equilibrium inhibition constant (Ki) from the equation Ki=InPt/1+[radio-ligand]/Kd where Kd is the equilibrium dissociation constant for the radio-ligand:receptor interaction and InPt is the inflection point of the dose-response curves.
Abramovitz, M. et al., Biochem, Biophys. Acta, 2000, 1483, pp. 285.

T1 sequence (P35408 whole entry): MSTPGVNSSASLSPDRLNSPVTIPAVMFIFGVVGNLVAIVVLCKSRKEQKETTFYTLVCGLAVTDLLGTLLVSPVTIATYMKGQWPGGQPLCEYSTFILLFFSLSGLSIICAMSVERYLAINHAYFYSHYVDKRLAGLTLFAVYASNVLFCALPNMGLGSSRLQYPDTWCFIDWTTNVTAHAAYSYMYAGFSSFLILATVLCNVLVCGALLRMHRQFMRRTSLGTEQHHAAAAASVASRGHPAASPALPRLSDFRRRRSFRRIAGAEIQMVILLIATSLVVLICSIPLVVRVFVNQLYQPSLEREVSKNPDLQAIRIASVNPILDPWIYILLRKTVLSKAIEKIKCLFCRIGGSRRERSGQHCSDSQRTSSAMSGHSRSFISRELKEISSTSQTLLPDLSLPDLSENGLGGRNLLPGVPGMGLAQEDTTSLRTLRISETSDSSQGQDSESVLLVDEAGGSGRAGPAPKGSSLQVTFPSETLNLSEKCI

Structure (SMILES) | IC50 [nM]
CN1CCc2c(n(-c3ccc(CCNC(=O)NS(=O)(=O)c4ccc(Cl)cc4)cc3)c3cc(Cl)c(Cl)cc23)C1=O [Example 1-10, 4-chloro-N-[({2-[4-(6,7-dichloro-2-methyl-1-oxo-1,2,3,4-tetrahydro-9H-beta-carbolin-9-yl)phenyl]ethyl}amino)carbonyl]benzenesulfonamide] | < 1
CCN1CCc2c(n(-c3ccc(CCNC(=O)NS(=O)(=O)c4ccc(Cl)cc4)cc3)c3cc(Cl)cc(Cl)c23)C1=O [Example 1-6, 4-chloro-N-[({2-[4-(5,7-dichloro-2-ethyl-1-oxo-1,2,3,4-tetrahydro-9H-beta-carbolin-9-yl)phenyl]ethyl}amino)carbonyl]benzenesulfonamide] | < 1
CN1CCc2c(n(-c3ccc(CCNC(=O)NS(=O)(=O)c4ccc(Cl)cc4)cc3)c3ccc(-c4ccc(F)cc4)cc23)C1=O [Example 1-19, 4-chloro-N-{[(2-{4-[6-(4-fluorophenyl)-2-methyl-1-oxo-1,2,3,4-tetrahydro-9H-beta-carbolin-9-yl]phenyl}ethyl)amino]carbonyl}benzenesulfonamide] | < 1
CN1CCc2c(n(-c3ccc(CCNC(=O)NS(=O)(=O)c4ccc(Cl)cc4)cc3)c3cccc(-c4ccccc4)c23)C1=O [Example 1-17, 4-chloro-N-[({2-[4-(2-methyl-1-oxo-5-phenyl-1,2,3,4-tetrahydro-9H-beta-carbolin-9-yl)phenyl]ethyl}amino)carbonyl]benzenesulfonamide] | < 1
CN1CCc2c(n(-c3ccc(CCNC(=O)NS(=O)(=O)c4ccc(Cl)cc4)cc3)c3ccc(Cl)cc23)C1=O [Example 1-4, 4-chloro-N-[({2-[4-(6-chloro-2-methyl-1-oxo-1,2,3,4-tetrahydro-9H-beta-carbolin-9-yl)phenyl]ethyl}amino)carbonyl]benzenesulfonamide] | < 1
CN1CCc2c(n(-c3ccc(CCNC(=O)NS(=O)(=O)c4ccc(Cl)cc4)cc3)c3cc(Cl)cc(Cl)c23)C1=O [Example 1-3, 4-chloro-N-[({2-[4-(5,7-dichloro-2-methyl-1-oxo-1,2,3,4-tetrahydro-9H-beta-carbolin-9-yl)phenyl]ethyl}amino)carbonyl]benzenesulfonamide] | < 1
CN1CCc2c(n(-c3ccc(CCNC(=O)NS(=O)(=O)c4ccc(Cl)cc4)cc3)c3cccc(Cl)c23)C1=O [Example 1-13, 4-chloro-N-[({2-[4-(5-chloro-2-methyl-1-oxo-1,2,3,4-tetrahydro-9H-beta-carbolin-9-yl)phenyl]ethyl}amino)carbonyl]benzenesulfonamide] | < 1
CN1CCc2c(n(-c3ccc(CCNC(=O)NS(=O)(=O)c4ccc(Cl)cc4)cc3)c3ccc(-c4ccccc4)cc23)C1=O [Example 1-8, 4-chloro-N-[({2-[4-(2-methyl-1-oxo-6-phenyl-1,2,3,4-tetrahydro-9H-beta-carbolin-9-yl)phenyl]ethyl}amino)carbonyl]benzenesulfonamide] | < 1
CN1CCc2c(n(-c3ccc(CC4(NC(=O)NS(=O)(=O)c5ccc(Cl)cc5)CC4)cc3)c3ccc(Br)cc23)C1=O [Example 1-16, N-[({1-[4-(6-bromo-2-methyl-1-oxo-1,2,3,4-tetrahydro-9H-beta-carbolin-9-yl)benzyl]cyclopropyl}amino)carbonyl]-4-chlorobenzenesulfonamide] | < 1
CN1CCc2c(n(-c3ccc(CCNC(=O)NS(=O)(=O)c4ccc(Cl)cc4)cc3)c3ccc(Cl)c(Cl)c23)C1=O [Example 1-11, 4-chloro-N-[({2-[4-(5,6-dichloro-2-methyl-1-oxo-1,2,3,4-tetrahydro-9H-beta-carbolin-9-yl)phenyl]ethyl}amino)carbonyl]benzenesulfonamide] | < 1

Further lines, results first:

IC50 [nM] | Structure (SMILES)
< 1 | CN1CCc2c(n(-c3ccc(CC4(NC(=O)NS(=O)(=O)c5ccc(Cl)cc5)CC4)cc3)c3ccc(C(=O)O)cc23)C1=O [Example 3-3, 9-[4-({1-[({[(4-chlorophenyl)sulfonyl]amino}carbonyl)amino]cyclopropyl}methyl)phenyl]-2-methyl-1-oxo-2,3,4,9-tetrahydro-1H-beta-carboline-6-carboxylic acid]
< 1 | Cc1nnc(-c2ccc3c(c2)c2c(n3-c3ccc(CC4(NC(=O)NS(=O)(=O)c5ccc(Cl)cc5)CC4)cc3)C(=O)N(C)CC2)o1 [Example 3-1, sodium[(4-chlorophenyl)sulfonyl]{[(1-{4-[2-methyl-6-(5-methyl-1,3,4-oxadiazol-2-yl)-1-oxo-1,2,3,4-tetrahydro-9H-beta-carbolin-9-yl]benzyl}cyclopropyl)amino]carbonyl}azanide]
< 1 | CN1CCc2c(n(-c3ccc(CCNC(=O)NS(=O)(=O)c4ccc(Cl)cc4)cc3)c3ccc(S(C)(=O)=O)cc23)C1=O [Example 1-31, 4-chloro-N-{[(2-{4-[2-methyl-6-(methylsulfonyl)-1-oxo-1,2,3,4-tetrahydro-9H-beta-carbolin-9-yl]phenyl}ethyl)amino]carbonyl}benzenesulfonamide]
< 1 | CN1CCc2c(n(-c3ccc(CC4(NC(=O)NS(=O)(=O)c5ccc(Cl)cc5)CC4)cc3)c3ccc(C4CC4)cc23)C1=O [Example 2-1, 4-chloro-N-[({1-[4-(6-cyclopropyl-2-methyl-1-oxo-1,2,3,4-tetrahydro-9H-beta-carbolin-9-yl)benzyl]cyclopropyl}amino)carbonyl]benzenesulfonamide]
< 1 | CN1CCc2c(n(-c3ccc(CC4(NC(=O)NS(=O)(=O)c5ccc(Cl)cc5)CC4)cc3)c3ccc(-c4ccccc4F)cc23)C1=O [Example 1-23, 4-chloro-N-{[(1-{4-[6-(2-fluorophenyl)-2-methyl-1-oxo-1,2,3,4-tetrahydro-9H-beta-carbolin-9-yl]benzyl}cyclopropyl)amino]carbonyl}benzenesulfonamide]
< 1 | CN1CCc2c(n(-c3ccc(CC4(NC(=O)NS(=O)(=O)c5ccc(Cl)cc5)CC4)cc3)c3ccc(S(=O)(=O)c4ccccc4)cc23)C1=O [Example 1-37, 4-chloro-N-{[(1-{4-[2-methyl-1-oxo-6-(phenylsulfonyl)-1,2,3,4-tetrahydro-9H-beta-carbolin-9-yl]benzyl}cyclopropyl)amino]carbonyl}benzenesulfonamide]
< 1 | Cc1cc(C)c2c3c(n(-c4ccc(CC5(NC(=O)NS(=O)(=O)c6ccc(Cl)cc6)CC5)cc4)c2c1)C(=O)N(C)CC3 [Example 1-28, 4-chloro-N-[({1-[4-(2,5,7-trimethyl-1-oxo-1,2,3,4-tetrahydro-9H-beta-carbolin-9-yl)benzyl]cyclopropyl}amino)carbonyl]benzenesulfonamide]
< 1 | CN1CCc2c(n(-c3ccc(CCNC(=O)NS(=O)(=O)c4ccc(Cl)cc4)cc3)c3ccc(-c4cccc(S(C)(=O)=O)c4)cc23)C1=O [Example 1-36, 4-chloro-N-({[2-(4-{2-methyl-6-[3-(methylsulfonyl)phenyl]-1-oxo-1,2,3,4-tetrahydro-9H-beta-carbolin-9-yl}phenyl)ethyl]amino}carbonyl)benzenesulfonamide]
< 1 | CN1CCc2c(n(-c3ccc(CC4(NC(=O)NS(=O)(=O)c5ccc(Cl)cc5)CC4)cc3)c3ccc(-c4nnc(-c5ccccc5)o4)cc23)C1=O [Example 3-5, 4-chloro-N-{[(1-{4-[2-methyl-1-oxo-6-(5-phenyl-1,3,4-oxadiazol-2-yl)-1,2,3,4-tetrahydro-9H-beta-carbolin-9-yl]benzyl}cyclopropyl)amino]carbonyl}benzenesulfonamide]
< 1 | CN1CCc2c(n(-c3ccc(CCNC(=O)NS(=O)(=O)c4ccc(Cl)cc4)cc3)c3ccc(-c4ccc(S(C)(=O)=O)cc4)cc23)C1=O [Example 1-35, 4-chloro-N-({[2-(4-{2-methyl-6-[4-(methylsulfonyl)phenyl]-1-oxo-1,2,3,4-tetrahydro-9H-beta-carbolin-9-yl}phenyl)ethyl]amino}carbonyl)benzenesulfonamide]

same assay, conditions: column marked X when IC50 > 5; read-out: IC50 (nm) X > 5

IC50 [nM] | Structure (SMILES)
> 5 | CN1CCc2c(n(-c3ccc(CCNC(=O)NS(=O)(=O)c4ccc(Cl)cc4)cc3)c3cccc(S(C)(=O)=O)c23)C1=O [Example 1-33, 4-chloro-N-{[(2-{4-[2-methyl-5-(methylsulfonyl)-1-oxo-1,2,3,4-tetrahydro-9H-beta-carbolin-9-yl]phenyl}ethyl)amino]carbonyl}benzenesulfonamide]
> 5 | CN1CCc2c(n(-c3ccc(CCNC(=O)NS(=O)(=O)c4ccc(Cl)cc4)cc3)c3c(Cl)cccc23)C1=O [Example 1-20, 4-chloro-N-[({2-[4-(8-chloro-2-methyl-1-oxo-1,2,3,4-tetrahydro-9H-beta-carbolin-9-yl)phenyl]ethyl}amino)carbonyl]benzenesulfonamide]
> 5 | O=C(NCCc1ccc(-n2c3c(c4c(Cl)cc(Cl)cc42)CCN(c2ccccc2)C3=O)cc1)NS(=O)(=O)c1ccc(Cl)cc1 [Example 1-9, 4-chloro-N-[({2-[4-(5,7-dichloro-1-oxo-2-phenyl-1,2,3,4-tetrahydro-9H-beta-carbolin-9-yl)phenyl]ethyl}amino)carbonyl]benzenesulfonamide]

same assay, conditions: radioligand displacement binding assay; read-out: IC50

IC50 [nM] | Structure (SMILES)
> 5 | CN1CCc2c(n(-c3ccc(CCNC(=O)NS(=O)(=O)c4ccc(Cl)cc4)cc3)c3cccc(S(C)(=O)=O)c23)C1=O [Example 1-33, 4-chloro-N-{[(2-{4-[2-methyl-5-(methylsulfonyl)-1-oxo-1,2,3,4-tetrahydro-9H-beta-carbolin-9-yl]phenyl}ethyl)amino]carbonyl}benzenesulfonamide]
> 5 | CN1CCc2c(n(-c3ccc(CCNC(=O)NS(=O)(=O)c4ccc(Cl)cc4)cc3)c3c(Cl)cccc23)C1=O [Example 1-20, 4-chloro-N-[({2-[4-(8-chloro-2-methyl-1-oxo-1,2,3,4-tetrahydro-9H-beta-carbolin-9-yl)phenyl]ethyl}amino)carbonyl]benzenesulfonamide]
> 5 | O=C(NCCc1ccc(-n2c3c(c4c(Cl)cc(Cl)cc42)CCN(c2ccccc2)C3=O)cc1)NS(=O)(=O)c1ccc(Cl)cc1 [Example 1-9, 4-chloro-N-[({2-[4-(5,7-dichloro-1-oxo-2-phenyl-1,2,3,4-tetrahydro-9H-beta-carbolin-9-yl)phenyl]ethyl}amino)carbonyl]benzenesulfonamide]
